Results taken from article PMC9863607, “Combined Use of Antimicrobial Peptides with Antiseptics against Multidrug-Resistant Bacteria: Pros and Cons” (Pharmaceutics, 2023).
Read-outs that look alike come from different tables or passages of the source. Peptide text beside a SMILES is read from it.

Assays:
[1] = test system: P. aeruginosa MDR 522/17; assay: Crystal violet assay of biofilm formation; assay type: cell-based, Pseudomonas aeruginosa; conditions: median of 3 independent experiments; for Minimal FECI, AMP + CAPB, biofilm formation: combination with cocamidopropyl betaine; for Minimal FECI, AMP + CAPB, biofilm formation / Minimal FECI, AMP + DXD, biofilm formation / Minimal FECI, AMP + ETA, biofilm formation / Minimal FECI, AMP + PVG, biofilm formation / Minimal FECI, AMP + PTS, biofilm formation: sub-microbicidal concentrations; for Minimal FECI, AMP + DXD, biofilm formation: combination with dioxydin; for Minimal FECI, AMP + ETA, biofilm formation: combination with etidronic acid; for Minimal FECI, AMP + PVG, biofilm formation: combination with poviargolum; for Minimal FECI, AMP + PTS, biofilm formation: combination with prontosan; for MECBF partially inhibiting bacterial biofilms: minimal concentration with significant decrease vs intact control (Mann–Whitney, p < 0.05), 24 h, 37 °C, MHB
Description: The impact of the tested antimicrobials and their combinations on the formation of biofilms was quantitated as per the crystal violet assay protocol published by Merritt et al.. Testing was performed in 96-well immunological plates with U-shaped bottoms. […] Experimental samples were quadruplicated, and control without antimicrobials was octuplicated.
Then, the liquid content of the test plates was discarded, and the plates were gently washed in still water from residual traces of unattached planktonic bacteria. Each well was supplied with 125 μL 0.1% aqueous solution of crystal violet dye for 10 min at room temperature to stain biofilm components left attached to the surface. After staining, the plates were washed with clear water once more to remove excessive dye and left to air-dry. To quantify the amount of the bound dye corresponding to the thickness of the formed biofilm, it was redissolved in 30% acetic acid, 200 μL of which was introduced into each well. After 15 min at room temperature, the content of the wells was mixed by repetitive pipetting to ensure complete dye extraction, and 125 μL of each sample was transferred well-by-well into 96-well clear flat-bottom plates for spectrophotometric examination. OD was measured at 580 nm. Final results were calculated as medians based on three independent experiments.
Analyzing the combined action of AMPs and antiseptics (AS) in sub-microbicidal concentrations toward biofilms, we adopted the same approach based on the calculation of fractional indices as the one we used while testing antimicrobial activity on planktonic bacteria. For combinations, the series of concentrations from [MECBF(AMP) + MECBF(AS)], [½MECBF(AMP) + ½MECBF(AS)] and down to [1/32 × MECBF(AMP) + 1/32 × MECBF(AS)] was analyzed. […] The minimal FECI > 4 was interpreted as antagonism, FECI ≤ 0.5 as synergy, 0.5 < FECI ≤ 1 as additivity, and 1 < FECI ≤ 4 as independent action.

[2] = test system: normal human dermal fibroblasts; assay: MTT test and/or direct cell count by light microscopy; conditions: for FECI, toxicity toward fibroblasts: assessed from the ½+½ and ¼+¼ MEC combinations
Text: Potential cytotoxic effects of the test substances and their combinations toward human dermal fibroblasts were observed using a MTT dye [3-(4,5-dimethylthiazol-2-yl)-2,5-diphenyltetrazolium bromide]-based test first proposed by Mosmann. MTT basically functions on the same principle as resazurin: it is reduced in metabolically active cells to the product named formazan, which differs from MTT by its properties. While MTT is yellow, formazan is blue and water-insoluble. Normal human fibroblasts initially obtained from the Pokrovsky Stem Cell Bank (Saint Petersburg, Russia) were cultured at 37 °C and 5% CO2 in DMEM medium supplemented with 10% fetal bovine serum, glutamine, and Pen-Strep. The day before, experiment cells were detached from the culture flasks using Trypsin-Versene reagent, collected into a sterile 15 mL tube, centrifuged for 10 min at 300× g to discard the previous medium, and resuspended in serum-, glutamine-, and antibiotic-free DMEM. Cells were counted using a hemocytometer; their concentration was adjusted, and they were distributed at 10,000–15,000 cells per well in 90 µL in a 96-well sterile treated flat-bottom plate and left at 37 °C and 5% CO2 overnight to properly adhere. The following day, their well-being was visually checked using an inverted light microscope, and the wells were supplied with 10 µL of the test substances or their combinations in DMEM in 10 times the final desired concentrations. Experimental samples were made in triplicates. […] At least six repeats of each type of the control samples were made. Test plates were incubated at 37 °C and 5% CO2 overnight, and 10 µL of the 5 mg/mL MTT in PBS were introduced into each well the next morning. After another 4 h of incubation at the same conditions, formed formazan crystals were dissolved by adding 110 µL of isopropanol containing 0.04 M HCl (the latter is used to “switch” phenol red pH indicator in DMEM from red to yellow). Then, each sample was thoroughly mixed by repetitive pipetting, and formazan concentration was spectrophotometrically evaluated measuring OD at 540 nm with subtraction of the background at 690 nm.
We resorted to the direct cell count in case the MTT test was not applicable or required verification of some sort. This idea was borrowed from the crystal violet assay for determining viability of cultured cells and is based on the fact that, once dead, adherent cells detach from the surface. Since we were not aiming to analyze a large number of samples in this manner, we simply skipped the staining step of the crystal violet assay, which is also slightly difficult and brings a risk of detaching cells during washing. We proceeded with the same protocol as for the MTT test down to the step of adding MTT dye. Then, instead, we used an inverted light microscope (magnification ×500) to calculate the number of attached cells in 10 fields of view in each experimental well of interest and compared it with the count for the 100% viability control wells. The exact effect was evaluated as viable cells (%) = mean number of adhered cells in a sample / mean number of adhered cells in 100% viability control × 100%.
While analyzing toxicity toward eukaryotic cells, components were mixed in concentrations of ½ MEC (AMP) + ½ MEC (AS) (that can provide the fractional index = 1, denoting additivity, if found effective) and ¼ MEC (AMP) + ¼ MEC (AS) (that can provide the fractional index = 0.5, denoting synergy, if found effective).
Cytotoxic effects of individual substances and their combinations were also evaluated against cultured normal human dermal fibroblasts. We used MTT tests and/or light microscopy for the direct cell count.

[3] = antiseptics and surfactants, serum-free DMEM, overnight, median of 3 independent experiments, prontosan as polyhexanide, etidronic acid primarily by direct cell count

Compound | Minimal FECI, AMP + CAPB, biofilm formation [1] | Minimal FECI, AMP + DXD, biofilm formation [1] | Minimal FECI, AMP + ETA, biofilm formation [1] | Minimal FECI, AMP + PVG, biofilm formation [1] | Minimal FECI, AMP + PTS, biofilm formation [1] | MECBF partially inhibiting bacterial biofilms [1] | MECF [2] | MECF of cytotoxic action toward normal human dermal fibroblasts [2, 3] [µg/mL] | other results
CC[C@H](C)[C@H](NC(=O)[C@H](CCCNC(=N)N)NC(=O)[C@@H](NC(=O)[C@@H]1CCCN1C(=O)[C@@H]1CCCN1C(=O)[C@H](CCCNC(=N)N)NC(=O)[C@H](CCCNC(=N)N)NC(=O)[C@H](Cc1ccccc1)NC(=O)[C@@H]1CCCN1C(=O)[C@H](CC(C)C)NC(=O)[C@H](CCCNC(=N)N)NC(=O)[C@H](Cc1ccccc1)NC(=O)[C@@H](N)CCCNC(=N)N)[C@@H](C)CC)C(=O)N[C@@H](Cc1c[nH]cn1)C(=O)N1CCC[C@H]1C(=O)N1CCC[C@H]1C(=O)N1CCC[C@H]1C(=O)N[C@@H](Cc1ccccc1)C(=O)N[C@@H](Cc1ccc(O)cc1)C(=O)N1CCC[C@H]1C(=O)N1CCC[C@H]1C(=O)N[C@@H](Cc1ccccc1)C(=O)N[C@@H](CCCNC(=N)N)C(=O)N[C@@H](CCCNC(=N)N)C(=O)N[C@@H](Cc1ccccc1)C(=O)N[C@@H](CC(C)C)C(=O)O [ChBac3.4] (H-RFRLPFRRPPIRIHPPPFYPPFRRFL-OH; N-terminus assumed) | 0.5 | 1.12 | 2 | 1 | 0.12 | 1/64 |  |  | MECF of cytotoxic action toward normal human dermal fibroblasts [2]: 40 µM
[O-][n+]1c(CO)c(CO)[n+]([O-])c2ccccc21 [Dioxydin] |  |  |  |  |  | 1/16 | 0.5 mg/mL | 500 | 
CC(O)(P(=O)(O)O)P(=O)(O)O [Etidronic acid] |  |  |  |  |  | 1/32 | less than 2.5 mg/mL | <2500 | Cytotoxic effect toward human dermal fibroblasts ([2]; at 2.5 mg/mL): higher than 50%
CC(C)C[C@H](NC(=O)[C@H](CCCNC(=N)N)NC(=O)CNC(=O)CNC(=O)[C@@H](N)CCCNC(=N)N)C(=O)N[C@H]1CSSC[C@@H](C(=O)N[C@H](C(=O)NCC(=O)N[C@@H](CCCNC(=N)N)C(N)=O)C(C)C)NC(=O)[C@H](C(C)C)NC(=O)[C@@H]2CSSC[C@H](NC(=O)[C@H](Cc3ccc(O)cc3)NC1=O)C(=O)N[C@@H](CCCNC(=N)N)C(=O)N[C@@H](CCCNC(=N)N)C(=O)N[C@@H](CCCNC(=N)N)C(=O)N[C@@H](Cc1ccccc1)C(=O)N2 [PG-1, protegrin 1] | 0.12 | 1 | 2 | 0.25 | 0.12 | 1/64 |  |  | FECI, toxicity toward fibroblasts ([2]; B = cocamidopropyl betaine): 1.0; Toxicity of (¼ MEC A + ¼ MEC B) toward human dermal fibroblasts ([2]; B = cocamidopropyl betaine, experiment 1 of 3 (1st symbol)): +; Toxicity of (¼ MEC A + ¼ MEC B) toward human dermal fibroblasts ([2]; B = cocamidopropyl betaine, experiment 2 of 3 (2nd symbol)): −; Toxicity of (¼ MEC A + ¼ MEC B) toward human dermal fibroblasts ([2]; B = cocamidopropyl betaine, experiment 3 of 3 (3rd symbol)): −; Toxicity of (¼ MEC A + ¼ MEC B) toward human dermal fibroblasts ([2]; B = cocamidopropyl betaine, overall result of 3 independent experiments (square brackets)): −; FECI, toxicity toward fibroblasts ([2]; B = dioxydin): >1.0; FECI, toxicity toward fibroblasts ([2]; B = poviargolum): 1.0; Toxicity of (¼ MEC A + ¼ MEC B) toward human dermal fibroblasts ([2]; B = poviargolum, experiment 1 of 3 (1st symbol)): +; Toxicity of (¼ MEC A + ¼ MEC B) toward human dermal fibroblasts ([2]; B = poviargolum, experiment 2 of 3 (2nd symbol)): −; Toxicity of (¼ MEC A + ¼ MEC B) toward human dermal fibroblasts ([2]; B = poviargolum, experiment 3 of 3 (3rd symbol)): −; Toxicity of (¼ MEC A + ¼ MEC B) toward human dermal fibroblasts ([2]; B = poviargolum, overall result of 3 independent experiments (square brackets)): −; FECI, toxicity toward fibroblasts ([2]; B = prontosan): 1.0; Magnitude of toxic effect toward human dermal fibroblasts ([2]; at 20 μM): higher than 50%
Cocamidopropyl betaine |  |  |  |  |  | 1/512 |  | 12.5 | 
